# Key:
# preantral follicles [1] = experiment: In vivo treatment of juvenile mice (day 13) with CNP followed by eCG/hCG; conditions: day 13 mice
# Description: In vivo treatment with CNP promoted follicle development for ovulation and subsequent pregnancy in juvenile, prepubertal, and adult mice: To test the ability CNP to stimulate preantral follicle development in vivo, juvenile mice at day 13 of age were treated i.p. with CNP daily for 4 days. This was followed by a single i.p. injection of eCG for 2 more days before determination of ovarian weight. […] Some of these animals were further treated with an ovulatory dose of hCG to check ovulation efficiency.
# (§1) In vivo treatment with CNP, ovulation, and pregnancy: Infantile mice at day 13 of age were treated with CNP (20 ug/kg body weight) i.p. daily for 4 days. This was followed by a single injection of eCG (5 IU) for 2 days to stimulate penultimate follicle maturation before collection of ovaries for weighting and histological analyses. Some animals were further treated with an ovulatory dose (5 IU) of hCG and oocytes in oviducts were monitored at 16 h later to evaluate ovulation efficiency. To test the effects of CNP on early antral follicle growth, prepubertal mice at day 21 of age were treated intraperitoneally with CNP (50 ug/kg body weight) daily for four days to stimulate preovulatory follicle development, followed by the injection of an ovulatory dose (2.5 IU) of hCG. At 16 h later, number of ovulated oocytes was determined. Mature oocytes obtained from CNP-pretreated animals were used for in vitro fertilization. Sperm from CD1 male mice (10-12 weeks old) were collected into human tubal fluid media (Millipore) and incubated for 1 h at 37 C. Oocytes were fertilized with sperm (2-3×10^5/ml) for 6 h and inseminated oocytes were transfer into KSOM-AA medium (Millipore) to allow development into blastocysts. Some of the CNP-pretreated females were mated with fertile males for the monitoring of pregnancy and the delivery of pups.
# [2] = Observation of abnormalities after 4 days of CNP treatment; type: in vivo, mice; conditions: present dosages and injection protocols
# Source text: CNP acts exclusively through NPRB whereas ANP and BNP act through NPRA. […] The apparent lack of side effects using the present low doses of CNP is consistent with earlier reports showing minimal cardiac and renal actions using physiological concentrations of CNP.
# [3] = system: granulosa cells from mice at day 21 of age; experiment: cGMP and cAMP production by cultured granulosa cells; type: cell-based; conditions: day 21 mice, 2 h
# Description: (§2) Stimulation of cGMP, but not cAMP, production by cultured ovarian somatic cells: Because the NPRB receptors mediated cGMP production stimulated by the CNP ligand, we isolated somatic cells from ovaries of mice at day 13 of age and granulosa cells from mice at day 21 of age before treatment with increasing doses of CNP or a high dose (30 nM) of ANP for 2 h. Media content of both cGMP and cAMP were determined by RIA.
# early antral follicles = experiment: In vivo treatment of prepubertal mice (day 21) with CNP followed by hCG, in vitro fertilization, mating
# Description: To further test the ability of CNP to stimulate the development of early antral follicles to the preovulatory stage, prepubertal mice at day 21 days of age were treated i.p. with CNP daily for 4 days followed by a single injection of an ovulatory dose of hCG. At […] after hCG treatment, the number of ovulated mature oocytes were determined.
# We further tested if ovulated oocytes retrieved after CNP pretreatment are capable of being fertilized. Oocytes were obtained from oviducts of CNP-pretreated prepubertal mice after hCG treatment and used for in vitro fertilization. We used oocytes obtained from prepubertal mice treated sequential with eCG (2 days) and hCG (16 h) as controls. […] Some prepubertal females pretreated with CNP followed by hCG to induce ovulation were mated with fertile males.
# as §1
# [4] = system: somatic cells from ovaries of mice at day 13 of age; experiment: cGMP and cAMP production by cultured somatic cells; type: cell-based; conditions: day 13 mice, 2 h
# Description: as §2
# [5] = short term infusion in humans, supraphysiological levels in plasma; cited from earlier work
# [6] = system: human ovarian cortical fragments; experiment: Xenografts of human ovarian cortical fragments; type: in vivo
# preantral follicles [7] = experiment: Preantral follicle culture; type: cell-based, mice
# Source text: CNP treatment promoted the growth of preantral follicles and cultured ovarian explants: Preantral follicles (125-135 um in diameter) were isolated from ovaries of mice at day 13 of age and treated with different hormones for four days with daily monitoring of follicle diameters. […] In contrast, treatment with ANP was ineffective.
# Dissection follicles of different sizes and culturing of preantral follicles: For RT-PCR analyses, early secondary follicles of 90-140 um in diameters were isolated from mice at day 13 of age whereas antral follicles (300-400 um in diameter) were isolated from prepubertal mice at day 23 of age. Preovulatory follicles (500-600 um in diameter) were isolated from prepubertal mice treated with eCG (5 IU). For follicle cultures, preantral follicles (125-145 um in diameter) were isolated from mice at day 13 of age and cultured individually in 96 well plates containing alpha-MEM (100 ul/well) with penicillin and streptomycin together with insulin, transferrin and selenium. […] The media were changed every two days and follicle growth was monitored daily by measuring follicle diameters.
# ovaries from day 10 mice = experiment: Ovarian explant cultures treated with CNP and/or FSH; type: cell-based; conditions: 4 days culture
# Description: Ovarian explant cultures: Ovaries from day 10 mice were placed on culture plate inserts (Millipore, Bedford, Mass.) and cultured in 400 μl of DMEM/F12 containing 0.1% BSA (Sigma), 0.1% Albumax II, insulin-transferrin-selenium, 0.05 mg/ml L-ascorbic acid and penicillin-streptomycin under the membrane insert to cover ovaries with a thin layer of medium. […] Some explants were also treated with a pan-specific protein kinase G inhibitor, Rp-8-Br-PET-cGMPS (BioLog, Bremen, Germany). At the end of culture, ovaries were fixed in Bouin's solution, paraffin embedded, and cut into continuous sections before staining with hematoxylin and eosin.
substance,measurement,setting,value
CNP: 22 amino acid peptide cleaved from NPPC precursor; activates natriuretic peptide receptor-B (NPRB),Ovulated oocytes in the oviducts vs controls,"preantral follicles [1]; CNP, then eCG and hCG",higher numbers of ovulated oocyte
same,Increase in ovarian weight,"preantral follicles [1]; i.p. 20 ug/kg daily for 4 days, then eCG 2 days",56%
same,Development of antral follicles (histological analyses),"preantral follicles [1]; i.p. daily for 4 days, then eCG",increases in the development of antral follicles
same,Abnormalities following treatment,[2],did not observe abnormalities
same,cAMP production,[3],no changes in cAMP production
same,Media content of cGMP,[3]; ANP 30 nM,dose-dependent increases in media content of cGMP
same,Number of ovulated oocytes induced by hCG vs saline,"early antral follicles; day 21 mice, 18 h after hCG",an increase in the number of ovulated oocytes
same,Ovarian weight,"early antral follicles; day 21 mice, i.p. 50 ug/kg daily for 4 days, then hCG",increased ovarian weight
same,Development of fertilized oocytes to the blastocyst stage vs control oocytes (eCG-hCG),early antral follicles; in vitro fertilization of oocytes of CNP-pretreated prepubertal mice,same efficiency
same,Pregnancy after mating with fertile males,early antral follicles; prepubertal females pretreated with CNP followed by hCG,Successful pregnancy was demonstrated followed by the delivery of healthy pups
same,cAMP production,[4],no changes in cAMP production
same,Media content of cGMP,[4]; ANP 30 nM,dose-dependent increases in media content of cGMP
same,Vasodepressor or natriuretic action,[5],not vasodepressor or natriuretic
same,Follicle growth as revealed by follicle counting,[6],stimulated follicle growth
same,"Follicle growth, combined treatment with CNP and FSH",preantral follicles [7]; FSH 25 ng/ml,additive increases in follicle growth
same,Follicle size compared with 8-bromo-cGMP,preantral follicles [7]; four days culture,comparable
same,Follicle size (diameter),"preantral follicles [7]; preantral follicles of day 13 mice, four days",dose- and time-dependent increases in follicle size
same,Development of preantral follicles (histological analyses),ovaries from day 10 mice,promoted the development of preantral follicles
same,"Ovarian weights of explants, both CNP and FSH included",ovaries from day 10 mice; combined with FSH,additive increases
same,Ovarian weights of explants,ovaries from day 10 mice; day 10 ovaries,dose-dependent increases in ovarian weights
